US6413517B1, “Identification of broadly reactive DR restricted epitopes” (Epimmune, Inc., priority 1997, dated 2002)
Read-outs that look alike come from different tables or passages of the source. No end group written: not given here.

Columns and labels:
[1] = system: panel of purified HLA DR molecules; type: binding, human
[2] = molecular target: T1, DRB1*1101 (DR5w11) (Homo sapiens, UniProt P01903+P01911, A100R/A169T/A87E/I96F/K41T/L162R/M171V/P40S/Q125H/Q178H/Q39Y/Q99D/R42S/S66Y/T262R/V115G/W38E); assay: biochemical; type: binding
T1 construct: Epstein-Barr virus (EBV) transformed homozygous cell lines were used as sources; endogenous in cells; host or cells: SWEIG (EBV-transformed homozygous B cell line)
T1 sequence (P01903 26-254, other chains not shown): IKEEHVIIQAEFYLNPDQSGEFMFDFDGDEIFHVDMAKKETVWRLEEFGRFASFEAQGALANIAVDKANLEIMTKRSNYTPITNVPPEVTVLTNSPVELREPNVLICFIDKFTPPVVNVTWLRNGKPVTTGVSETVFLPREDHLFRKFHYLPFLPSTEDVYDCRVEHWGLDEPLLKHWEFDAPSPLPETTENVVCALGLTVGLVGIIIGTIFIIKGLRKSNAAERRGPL

[3] = molecular target: T2, DRB1*0802 (DR8w2) (Homo sapiens, UniProt P01903+P01911, A100R/A103L/A169T/F76Y/H45Y/I96F/K41T/L162R/M171V/P40S/Q125H/Q178H/Q39Y/Q99D/R218S/R42G/S66Y/V115G/W38E); assay: biochemical; type: binding
T2 construct: Epstein-Barr virus (EBV) transformed homozygous cell lines were used as sources; endogenous in cells; host or cells: OLL (EBV-transformed homozygous B cell line)

[4] = molecular target: T3, DRB5*0101 (DR2w2a) (Homo sapiens, UniProt P01903+Q30154); assay: biochemical; type: binding
T3 construct: Epstein-Barr virus (EBV) transformed homozygous cell lines were used as sources; endogenous in cells; host or cells: GM3107 (EBV-transformed homozygous B cell line)

[5] = molecular target: T4, DRB1*0301 (DR3w17) (Homo sapiens, UniProt P01903+P01911, A100K/A102G/A103R/A169T/F55Y/I96L/K41T/L162R/M171V/P40S/Q125H/Q178H/Q39Y/R42S/S66N/T106N/T262R/W38E/Y61H); settings: read-out: Binding Capacity (IC 50% nM) Other Alleles DR3
[6] = molecular target: T5, DRB1*0701 (DR7) (Homo sapiens, UniProt P01903+P01911, A100R/A102G/A103Q/D57E/D86V/E43K/F76Y/K127E/L162R/M171V/P40G/Q125H/Q99D/R33Q/R42Y/R54Q/S133A/S66F/T210M/V115G/Y107V/Y59L/Y89S); assay: biochemical; type: binding
T5 construct: Epstein-Barr virus (EBV) transformed homozygous cell lines were used as sources; endogenous in cells; host or cells: PITOUT (EBV-transformed homozygous B cell line)

[7] = molecular target: T6, DRB1*0401 (DR4w4) (Homo sapiens, UniProt P01903+P01911, A100K/A169T/F76Y/I96L/K127E/L162R/M171V/N62H/P40V/Q125Y/R42H/S133A/S149N/S66Y/V115G/V209L/W38E); assay: biochemical; type: binding
T6 construct: Epstein-Barr virus (EBV) transformed homozygous cell lines were used as sources; endogenous in cells; host or cells: PREISS (EBV-transformed homozygous B cell line)

[8] = molecular target: T7, DRB1*0101 (DR1) (Homo sapiens, UniProt P01903+P01911, A100R/D57E/F55L/F60I/F76Y/I96L/L162R/M171V/P40L/Q125E/R42F/V115G/Y59C); assay: biochemical; type: binding
T7 construct: Epstein-Barr virus (EBV) transformed homozygous cell lines were used as sources; endogenous in cells; host or cells: LG2 (EBV-transformed homozygous B cell line)

[9] = molecular target: T8, DRB1*1501 (DR2w2b) (Homo sapiens, UniProt P01903+P01911); assay: biochemical; type: binding
T8 construct: expressed in transfected cells; host or cells: transfected fibroblasts L466.1

[10] = molecular target: T4, DRB1*0301 (DR3w17); assay: biochemical; settings: Binding Capacity (IC50% nM) DR3
[11] = molecular target: T9, DRB1*1302 (DR6w19) (Homo sapiens, UniProt P01903+P01911, A100E/A169T/K41T/L162R/M171V/P40S/Q125H/Q178H/Q39Y/Q99D/R42S/S66N/T262R/V115G/W38E/Y61H); assay: biochemical; type: binding
T9 construct: Epstein-Barr virus (EBV) transformed homozygous cell lines were used as sources; the source of Class II molecules the EBV transformed homozygous cell line H0301; endogenous in cells; host or cells: H0301 (EBV-transformed homozygous B cell line)

[12] = molecular target: T10, DRB1*0901 (DR9) (Homo sapiens, UniProt P01903+P01911, A100R/A103E/D57H/D86V/F55Y/F60I/F76Y/I96F/K127E/L162R/M171V/P40D/Q125H/Q99R/R33Q/R42F/S133A/S66N/T210M/V115G/W38K/Y107V/Y59G/Y89S); assay: biochemical; type: binding
T10 construct: Epstein-Barr virus (EBV) transformed homozygous cell lines were used as sources; endogenous in cells

[13] = molecular target: T11, DRB1*0405 (DR4w15) (Homo sapiens, UniProt P01903+P01911, A100R/A169T/D86S/F76Y/I96L/K127E/L162R/M171V/N62H/P40V/Q125Y/R42H/S133A/S149N/S66Y/V115G/V209L/W38E); assay: biochemical; type: binding
T11 construct: Epstein-Barr virus (EBV) transformed homozygous cell lines were used as sources; endogenous in cells; host or cells: KT3 (EBV-transformed homozygous B cell line)

[14] = molecular target: T12, DRB1*1201 (DR5w12) (Homo sapiens, UniProt P01903+P01911, A100R/A169T/D57E/D86V/F55L/H45Y/K41T/L162R/M171V/P40S/Q125H/Q178H/Q39Y/Q99D/R42G/S66L/T262R/V114A/V67L/W38E/Y59H/Y61H/Y89S); assay: biochemical; type: binding
T12 construct: Epstein-Barr virus (EBV) transformed homozygous cell lines were used as sources; endogenous in cells; host or cells: Herluf (EBV-transformed homozygous B cell line)

[15] = Binding Capacity (IC50% nM) DR5w11
[16] = Binding Capacity (IC50% nM) DR8w2
[17] = Binding Capacity (IC 50% nM) Other Alleles DR2w2a
[18] = Binding Capacity (IC50% nM) DR7
[19] = read-out: Binding Capacity (IC 50% nM) DR1,4,7 DR7
[20] = Binding Capacity (IC 50% nM) DR1,4,7 DR4w4
[21] = Binding Capacity (IC50% nM) DR4w4
[22] = Binding Capacity (IC50% nM) DR1
[23] = Binding Capacity (IC 50% nM) DR1,4,7 DRB1
[24] = Binding Capacity (IC50% nM) DR2w2b
[25] = read-out: Binding Capacity (IC 50% nM) Other Alleles DR2w2b
[26] = Binding Capacity (IC50% nM) DR6w19
[27] = read-out: Binding Capacity (IC 50% nM) Other Alleles DR6w19
[28] = Binding Capacity (IC50% nM) DR9
[29] = read-out: Binding Capacity (IC 50% nM) Other Alleles DR9
[30] = Binding Capacity (IC50% nM) DR4w15
[31] = Binding Capacity (IC 50% nM) Other Alleles DR4w15
[32] = Binding Capacity (IC50% nM) DR5w12
[33] = read-out: Binding Capacity (IC 50% nM) Other Alleles DR5w12
[34] = read-out: Binding Capacity (IC 50% nM) Other Alleles DR5w11
[35] = read-out: Binding Capacity (IC 50% nM) Other Alleles DR8w2
[36] = Binding Capacity (IC50% nM) DR2w2a
[37] = read-out: Binding Capacity (IC 50% nM) Other Alleles DR2w2a
[38] = read-out: Binding Capacity (IC 50% nM) Other Alleles DR4w15

Row | Compound | IC50 [2, 15] | IC50 [3, 16] | IC50 [5] | IC50 [6, 18] | IC50 [6, 19] | IC50 [7, 20] | IC50 [7, 21] | IC50 [8, 23] | IC50 [9, 24] | IC50 [9, 25] | IC50 [10] | IC50 [11, 26] | IC50 [11, 27] | IC50 [12, 28] | IC50 [12, 29] | IC50 [13, 30] | IC50 [14, 32] | IC50 [14, 33] | IC50 [2, 34] | IC50 [3, 35] | further results
1 | CC[C@H](C)[C@H](NC(=O)[C@H](CO)NC(=O)[C@@H](N)CO)C(=O)N[C@H](C(=O)N[C@@H](Cc1ccccc1)C(=O)NCC(=O)N[C@@H](C)C(=O)N[C@@H](Cc1ccccc1)C(=O)N1CCC[C@H]1C(=O)N[C@@H](CO)C(=O)N[C@@H](CC(C)C)C(=O)N[C@@H](Cc1c[nH]cn1)C(=O)N[C@@H](CO)C(=O)NCC(=O)N[C@@H](CS)C(=O)N[C@@H](CS)C(=O)O)[C@@H](C)CC [Peptide 1136.38] | – | – | – | – | – | – | – | – | – | – | – | – | – | – | – | – | – | – | – | – | Total Alleles Bound [1]: 6
2 | LFHYYFLSEKAPGSTV [Peptide 1136.04] | 69 nM | 55 nM | > 1000 nM | 3330 nM | > 1000 nM | < 1000 nM | 20 nM | < 1000 nM | 1260 nM | > 1000 nM | > 10000 nM | > 10000 nM | > 1000 nM | 2880 nM | > 1000 nM | 563 nM | > 10000 nM | > 1000 nM | – | – | IC50 ([2]; Binding Capacity (IC 50% nM) Other Alleles DR5w11): < 1000 nM; IC50 ([3]; Binding Capacity (IC 50% nM) Other Alleles DR8w2): < 1000 nM; IC50 [4, 17]: < 1000 nM; IC50 [8, 22]: 24 nM; IC50 [13, 31]: < 1000 nM
3 | LWWSTMYLTHHYFVDL [Peptide 1136.46] | > 10000 nM | > 10000 nM | > 1000 nM | 5810 nM | > 1000 nM | < 1000 nM | 985 nM | < 1000 nM | > 10000 nM | > 1000 nM | > 10000 nM | > 10000 nM | > 1000 nM | > 10000 nM | > 1000 nM | > 10000 nM | > 10000 nM | > 1000 nM | > 1000 nM | > 1000 nM | IC50 [4, 36]: > 10000 nM; IC50 [4, 37]: > 1000 nM; IC50 [13, 38]: > 1000 nM
4 | QEIDPLSYNYIPVNSN [Peptide 1136.55] | 4540 nM | > 10000 nM | > 1000 nM | 2450 nM | > 1000 nM | < 1000 nM | – | < 1000 nM | > 10000 nM | > 1000 nM | > 10000 nM | 5000 nM | > 1000 nM | > 10000 nM | > 1000 nM | 271 nM | > 10000 nM | > 1000 nM | > 1000 nM | > 1000 nM | IC50 [4, 36]: > 10000 nM; IC50 [4, 37]: > 1000 nM; IC50 [13, 31]: < 1000 nM
5 | RVYQEPQVSPPQRAET [Peptide 1136.59.01a] | > 10000 nM | > 10000 nM | > 1000 nM | > 10000 nM | > 1000 nM | < 1000 nM | – | < 1000 nM | > 10000 nM | > 1000 nM | > 10000 nM | > 10000 nM | > 1000 nM | > 10000 nM | > 1000 nM | 3140 nM | > 10000 nM | > 1000 nM | > 1000 nM | > 1000 nM | IC50 [4, 17]: < 1000 nM; IC50 [8, 22]: 130 nM; IC50 [13, 38]: > 1000 nM
6 | WLFPRFKFVWVTYASW [Peptide 1136.44.01] | 4000 nM | 6360 nM | > 1000 nM | > 10000 nM | > 1000 nM | < 1000 nM | 780 nM | < 1000 nM | > 10000 nM | > 1000 nM | > 10000 nM | > 10000 nM | > 1000 nM | > 10000 nM | > 1000 nM | 6550 nM | > 10000 nM | > 1000 nM | > 1000 nM | > 1000 nM | IC50 [4, 36]: > 10000 nM; IC50 [4, 37]: > 1000 nM; IC50 [8, 22]: 526 nM; IC50 [13, 38]: > 1000 nM
